Test results taken from EPA's ToxValDB 9.5.
Several values for one entry are separate records, joined by “and”; a condition that tells them apart may be missing. Identical values can stand only once.

How the values were obtained:
Mus musculus = conditions: for LD50 / LC50: acute; for LD50: oral
Rattus norvegicus [1] = conditions: for LD50 / LC50: acute
Rattus norvegicus [2] = conditions: subchronic, oral, gavage, M, Sprague-Dawley
Rattus norvegicus [3] = conditions: for NOEL / LOEL: Hershberger, duration: 10 days, oral, gavage; for LEL: uterotrophic, duration: 3 days, injection, subcutaneous, Active
Rattus norvegicus [4] = system: Rattus norvegicus
Rattus norvegicus [5] = conditions: developmental; duration: 364 days; inhalation; whole body; M/F; CD; developmental
[6] = reproduction developmental, duration: 90 days, oral, diet, F
[7] = reproduction developmental, duration: 90 days, oral, diet, F, Fischer 344
[8] = reproduction developmental, duration: 90 days, oral, diet, Fischer 344, generation: F1
[9] = reproduction developmental, duration: 90 days, oral, diet, generation: F1
[10] = short-term, duration: 3 days, injection, subcutaneous, F, Crj:CD, uterus: uterine dry weight (absolute) + uterus: uterine dry weight (relative) + uterus: uterine wet weight (absolute) + uterus: uterine wet …
[11] = short-term, duration: 28 days, oral, gavage, F, Crl:CD(SD), A/G ratio + phospholipid + triglyceride
[12] = short-term, duration: 28 days, oral, gavage, F, Crl:CD(SD), cholinesterase + inorganic phosphorus + kidney: abnormal kidney histopathological changes
[13] = short-term, duration: 28 days, oral, gavage, F, Crl:CD(SD), uterus: uterine dry weight (absolute) + uterus: uterine dry weight (relative) + uterus: uterine wet weight (absolute) + uterus: uterine wet …
[14] = short-term, duration: 28 days, oral, gavage, M, Crl:CD(SD), alanine aminotransferase + body weight + brain: brain weight + gamma-glutamyl transpeptidase + heart: heart weight + hematocrit + kidney: …
[15] = short-term, duration: 28 days, oral, gavage, M, Crl:CD(SD), heart: heart weight
[16] = Wistar, active + Negative + Antiandrogenic + anti-androgenic
[17] = short-term, duration: 28 days, oral, gavage, F, Crl:CD(SD), Kidney: Kidney, Right, Pelvis, Dilation + Liver: Liver Weight, Relative + Liver: Liver, Large
[18] = short-term, duration: 28 days, oral, gavage, F, Crl:CD(SD), Whole Body: Clinical Observations
[19] = short-term, duration: 28 days, oral, gavage, M, Crl:CD(SD), Liver: Hepatocellular Hypertrophy + Liver: Liver Weight, Relative + Liver: Liver, Large

CC(C)OB(OC(C)C)OC(C)C [Triisopropyl orthoborate]
LD50 (Mus musculus; Swiss): 2500 mg/kg
LD50 (Rattus norvegicus [1]; oral, gavage): 8130 mg/kg

Nc1ccc(Oc2ccc(N)cc2)cc1 [4,4'-Oxydianiline]
LD50 (Mus musculus; gavage): ≥ 635 mg/kg and ≤ 735 mg/kg
LD50 (Rattus norvegicus [1]; oral, gavage): ≥ 675 mg/kg and ≤ 775 mg/kg
NOAEL (Rattus norvegicus [1]; developmental, oral, gavage, Sprague-Dawley): 10 mg/kg-day
LOAEL (Rattus norvegicus [1]; [6]): 400 ppm
NOAEL (Rattus norvegicus [1]; [6]): 100 ppm
LOAEL (Rattus norvegicus [1]; [7]): 400 ppm
NOAEL (Rattus norvegicus [1]; [7]): 100 ppm
LOAEL (Rattus norvegicus [1]; [8]): 400 ppm
NOAEL (Rattus norvegicus [1]; [8]): 100 ppm
LOAEL (Rattus norvegicus [1]; [9]): 400 ppm
NOAEL (Rattus norvegicus [1]; [9]): 100 ppm
NOAEL (Rattus norvegicus [1]; reproduction developmental, oral, gavage, F, Sprague-Dawley): 10 mg/kg-day
NOEL (Rattus norvegicus [2]; Food Consumption: decrease + Hematology: RBC decrease, R Hgb decrease, R RET increase, R Hct decrease, MCHC decrease, R APTT decrease, WBC …): 3 mg/kg-day

CCCCOCCOCCOCc1cc2c(cc1CCC)OCO2 [Piperonyl butoxide]
NOEL (Rattus norvegicus [3]; Sprague-Dawley, inactive + Negative + Negative + anti-androgenic + see note): 500 mg/kg-day

Oc1ccc(C2(c3ccc(O)cc3)CCCCC2)cc1 [Bisphenol Z]
NOEL (Rattus norvegicus [2]; Clinical Observation: Diarrhea Soft feces + Body Weight Changes: decrease, R + Food Consumption: decrease + Urinalysis: Urine volume …): 20 mg/kg-day
LOEL (Rattus norvegicus [4]; [10]): 30 mg/kg-day
NOEL (Rattus norvegicus [4]; [10]): 6 mg/kg-day
LOEL (Rattus norvegicus [4]; [11]): 100 mg/kg-day
NOEL (Rattus norvegicus [4]; [11]): 30 mg/kg-day
LOEL (Rattus norvegicus [4]; [12]): 300 mg/kg-day
NOEL (Rattus norvegicus [4]; [12]): 100 mg/kg-day
LOEL (Rattus norvegicus [4]; [13]): 30 mg/kg-day
NOEL (Rattus norvegicus [4]; [13]): 6 mg/kg-day
LOEL (Rattus norvegicus [4]; [14]): 300 mg/kg-day
NOEL (Rattus norvegicus [4]; [14]): 100 mg/kg-day
LOEL (Rattus norvegicus [4]; [15]): 100 mg/kg-day
NOEL (Rattus norvegicus [4]; [15]): 30 mg/kg-day
LOEL (Rattus norvegicus [4]; short-term, duration: 28 days, oral, gavage, M, Crl:CD(SD), thymus: serum T4): 30 mg/kg-day

CCCCCCCCCCCCc1ccc(O)cc1 [4-Dodecylphenol]
LEL (Rattus norvegicus [3]): 40 mg/kg-day and 39.7 mg/kg-day

CCCCCOC(=O)c1ccccc1C(=O)OCCCCC [Dipentyl phthalate]
LOEL (Rattus norvegicus [3]; [16]): 1000 mg/kg-day
NOEL (Rattus norvegicus [3]; [16]): 200 mg/kg-day
NOEL (Rattus norvegicus [4]; developmental, oral, gavage, M, Sprague-Dawley, generation: F1, F1: Testosterone (Testes) production): 50 mg/kg-day

CCC(F)(F)C(F)(F)C(F)(F)C(F)(F)C(F)(F)C(F)(F)F [1-(Perfluorohexyl)ethane]
NOAEL (Rattus norvegicus [4]; short-term, duration: 28 days, oral, gavage, F, Crl:CD(SD), Adrenal: Adrenal Gland Histopathology + Adrenal: Adrenal Gland Weight, Absolute + Adrenal: Adrenal Gland Weight, Relative + Bladder: Urinary…): 200 mg/kg-day
LOAEL (Rattus norvegicus [4]; [17]): 200 mg/kg-day
NOAEL (Rattus norvegicus [4]; [17]): 40 mg/kg-day
LOAEL (Rattus norvegicus [4]; [18]): 40 mg/kg-day
NOAEL (Rattus norvegicus [4]; [18]): 8 mg/kg-day
NOAEL (Rattus norvegicus [4]; short-term, duration: 28 days, oral, gavage, M, Crl:CD(SD), Adrenal: Adrenal Gland Histopathology + Adrenal: Adrenal Gland Weight, Absolute + Adrenal: Adrenal Gland Weight, Relative + Blood: Activated…): 200 mg/kg-day
LOAEL (Rattus norvegicus [4]; [19]): 200 mg/kg-day
NOAEL (Rattus norvegicus [4]; [19]): 40 mg/kg-day

C1CO1 [Ethylene oxide]
NOAEL (Rattus norvegicus [5]): 18 mg/m3

CC(=O)[C@@]1(O)CC[C@H]2[C@@H]3C[C@H](C)C4=CC(=O)CC[C@]4(C)[C@H]3CC[C@@]21C [Medroxyprogesterone]
LOEL (Rattus norvegicus [3]; [16]): 100 mg/kg-day
NOEL (Rattus norvegicus [3]; [16]): 20 mg/kg-day

CC(C)(C)c1ccc(O)cc1 [4-(1,1-Dimethylethyl)phenol]
LOAEL (Rattus norvegicus [1]; short-term, duration: 14 days, oral, gavage, Crj:CD): 250 mg/kg-day
LEL (Rattus norvegicus [3]): 100 mg/kg-day and 99.2 mg/kg-day

CCBr [Bromoethane]
LC50 (Mus musculus; inhalation, B6C3F1): 12100 mg/m3
LC50 (Mus musculus; inhalation, CF1): 72200 mg/m3
NOAEL (Mus musculus; short-term, duration: 14 days, inhalation, B6C3F1): 2230 mg/m3
LC50 (Rattus norvegicus [1]; inhalation, Fischer 344): 20900 mg/m3
LC50 (Rattus norvegicus [1]; inhalation, Sprague-Dawley): 120000 mg/m3
NOAEL (Rattus norvegicus [1]; chronic, duration: 14 weeks, inhalation, Fischer 344): 1780 mg/m3
NOAEL (Rattus norvegicus [1]; short-term, duration: 14 days, inhalation, Fischer 344): 2230 mg/m3

CC(C)COC(=O)C(C)C [Isobutyl isobutyrate]
LD50 (Mus musculus): > 6400 mg/kg
LD50 (Rattus norvegicus [1]; oral): > 6400 mg/kg

CCCCCCCCCc1ccccc1O [n-Nonylphenol]
LOEL (Rattus norvegicus [3]; Sprague-Dawley, active + Negative + Antiandrogenic + anti-androgenic + slight delay in timing of PPS, but only 33% of rats had complete separation by end of…): 100 mg/kg-day and 160 mg/kg-day
LEL (Rattus norvegicus [3]): 100 mg/kg-day

Cc1c(O)ccc2c1CC[C@@H]1[C@@H]2CC[C@]2(C)[C@@H](O)CC[C@@H]12 [4-Methylestradiol]
LEL (Rattus norvegicus [3]): 0.005 mg/day
